This assay deals with Mycobacterium tuberculosis. Briefly: Antimicrobial activity against multidrug-resistant Mycobacterium tuberculosis isolate after 2 to 4 weeks by two fold dilution method. It is filed as functional.

As usually defined, the MIC is the lowest concentration found to suppress growth. A higher MIC goes with a less susceptible organism. In general, MIC50 refers to the lowest concentration that inhibits either 50% of growth or 50% of the strains tested, depending on the study. The low end stands for greater potency, the high end for weaker potency. Broadly, the MIC90 is an inhibitory concentration at the 90% level, which refers to growth in some studies and to a panel of isolates in others. High values mean weaker potency, low ones greater potency.

In brackets after ≈: the same amount, converted by molar mass.

In the case of `COc1nc2ccc(Br)cc2cc1[C@@H](c1ccccc1)[C@@](O)(CCN(C)C)c1cccc2ccccc12` [BEDAQUILINE], the minimum inhibitory concentration (MIC) is 0.004 mg/L (≈ 0.0072 µM), the MIC50 amounted to 0.03 mg/L (≈ 0.054 µM) and the MIC90 amounted to 0.06 mg/L (≈ 0.108 µM).

These data come from ChEMBL document CHEMBL1137640, “In vitro antimycobacterial spectrum of a diarylquinoline ATP synthase inhibitor” (2007).
